# Results as given in patent US10172868B2, “Substituted quinazolines for inhibiting kinase activity” (NeuPharma, Inc., priority 2013, dated 2019).
# Experiments:
# H1975 cells = test: Inhibition of cancer cell growth, MTT assay, H1975; conditions: Homo sapiens, NCI-H1975, 72 h, read-out: IC50 in H1975 cells
# Experimental: Inhibition of cell growth by compounds was measured using MTT assay (Mosmann, T., Journal of Immunological Methods, 1983, 65, 55-63). Tumor cell lines were purchased from ATCC (American Type Culture Collection, Manassas, Va.). All cell lines were maintained in RPMI 1640 (Hyclone) supplemented with 10% fetal bovine serum (FBS, Hyclone), glutamine (2 mM, Hyclone), and antibiotics (penicillin 100 U/mL and streptomycin 50 μg/mL) at 37° C. in a humidified atmosphere of 5% CO2 in air. Taxol (as a positive control. Sigma) and compounds were dissolved in DMSO (Sigma), and the final concentration of DMSO in the medium was 1%. Tumor cells were plated in 96-well plates at densities of about 4000 cells/well of a 96-well plate and allowed to adhere/grow for 24 h. They were then treated with various concentrations of drug for 72 h, 3-(4,5-Dimethylthiazol-2-yl)-2,5-diphenyltetrazolium bromide (MTT, Sigma) was used to determine the number of viable cells at the time of compound addition and the number of cells remaining after 72 h compound exposure. The number of cells remaining after 72 h was compared to the number of viable cells at the time of compound addition by measuring the absorbance at 570 nm, allowing for the calculation of growth inhibition.
# All concentrations of compounds were tested in triplicate and controls were averaged over 4 wells. IC50 was calculated by plotting the concentration of compound vs the percentage of inhibition in treated wells using GraphPad Prism 5.
# EGFR (ErbB1) = EGFR (ErbB1) (Homo sapiens (Human), UniProt P00533); test: Z'-LYTE kinase inhibition assay, EGFR; assay type: biochemical; conditions: read-out: % inhibition against EGFR (Compound at 0.041 μM)
# Experimental: Inhibitory activities of compounds against BTK, EGFR and EGFR mutants (EGFR L858R, EGFR T790M, EGFR L858R/T790M), FGFR1, FGFR2, JAK2, JAK3 and KDR were measured by Invitrogen using Z'-LYTE® Method as briefly described in the following. Test Compounds are screened in 1% DMSO (final) in the well. For 10 point titrations, 3-fold serial dilutions are conducted from the starting concentration. All ATP Solutions are diluted to a 4× working concentration in Kinase Buffer (50 mM HEPES pH 7.5, 0.01% BRIJ-35, 10 mM MgCl2, 1 mM EGTA). Peptide/Kinase Mixtures are diluted to a 2× working concentration in the appropriate Kinase Buffers as described below. (i) Peptide/Kinase Mixtures for Measurement of EGFR (ErbB1): The 2×EGFR (ErbB1)/[…] mixture is prepared in 50 mM HEPES pH 7.5, 0.01% BRIJ-35, 10 mM MgCl2. 4 mM MnCl2, 1 mM EGTA, 2 mM DTT. The final 10 μL Kinase Reaction consists of 1.1-5.25 ng EGFR (ErbB1) and 2 μM […] in 50 mM HEPES pH 7.5, 0.01% BRIJ-35, 10 mM MgCl2, 2 mM MnCl2. 1 mM EGTA, 1 mM DTT. After the 1 hour Kinase Reaction incubation, 5 μL of a 1:64 dilution of Development Reagent B is added. Reaction starts by 30-second shaking of mixture consisting of 2.5 μL 4× test compound, […] 2× kinase reaction mixture and 2.5 μL 4×ATP Solution on Bar-coded Corning, low volume NBS, black 384-well plate (Corning Cat. #3676). Then the mixture is incubated for 60-minute at room temperature for the kinase reaction, followed by addition of 5 μL of a 1:1024 dilution of development reagent A and 30-second plate shake. The mixture is then incubated for another 60-minute at room temperature for development reaction. Finally fluorescence is read by plate reader. To determine IC50 of a compound against EGFR, EGFR mutant and other kinases, a series of concentrations of the compound were tested for the inhibition.
# EGFR (ErbB1) T790M L858R = EGFR (ErbB1) T790M L858R (Homo sapiens (Human), UniProt P00533, L858R/T790M); test: Z'-LYTE kinase inhibition assay, EGFR L858R/T790M; assay type: biochemical; conditions: for inhibition at 0.0137 µM: read-out: % inhibition against EGFR L858R/T790M (Compound at 0.0137 μM)
# Experimental: Inhibitory activities of compounds against BTK, EGFR and EGFR mutants (EGFR L858R, EGFR T790M, EGFR L858R/T790M), FGFR1, FGFR2, JAK2, JAK3 and KDR were measured by Invitrogen using Z'-LYTE® Method as briefly described in the following. Test Compounds are screened in 1% DMSO (final) in the well. For 10 point titrations, 3-fold serial dilutions are conducted from the starting concentration. All ATP Solutions are diluted to a 4× working concentration in Kinase Buffer (50 mM HEPES pH 7.5, 0.01% BRIJ-35, 10 mM MgCl2, 1 mM EGTA). Peptide/Kinase Mixtures are diluted to a 2× working concentration in the appropriate Kinase Buffers as described below. (iv) Peptide/Kinase Mixtures for Measurement of EGFR (ErbB1) T790M L858R: The 2×EGFR (ErbB1) […] mixture is prepared in 50 mM HEPES pH 6.5, 0.01% BRIJ-35, 10 mM MgCl2, 1 mM EGTA, 0.02% NaN3. […] After the 1 hour Kinase Reaction incubation, 5 μL of a 1:64 dilution of Development Reagent B is added. Reaction starts by 30-second shaking of mixture consisting of 2.5 μL 4× test compound, […] 2× kinase reaction mixture and 2.5 μL 4×ATP Solution on Bar-coded Corning, low volume NBS, black 384-well plate (Corning Cat. #3676). Then the mixture is incubated for 60-minute at room temperature for the kinase reaction, followed by addition of 5 μL of a 1:1024 dilution of development reagent A and 30-second plate shake. The mixture is then incubated for another 60-minute at room temperature for development reaction. Finally fluorescence is read by plate reader. To determine IC50 of a compound against EGFR, EGFR mutant and other kinases, a series of concentrations of the compound were tested for the inhibition.
# Sequence of EGFR (ErbB1) T790M L858R (P00533 25-1210 T790M/L858R): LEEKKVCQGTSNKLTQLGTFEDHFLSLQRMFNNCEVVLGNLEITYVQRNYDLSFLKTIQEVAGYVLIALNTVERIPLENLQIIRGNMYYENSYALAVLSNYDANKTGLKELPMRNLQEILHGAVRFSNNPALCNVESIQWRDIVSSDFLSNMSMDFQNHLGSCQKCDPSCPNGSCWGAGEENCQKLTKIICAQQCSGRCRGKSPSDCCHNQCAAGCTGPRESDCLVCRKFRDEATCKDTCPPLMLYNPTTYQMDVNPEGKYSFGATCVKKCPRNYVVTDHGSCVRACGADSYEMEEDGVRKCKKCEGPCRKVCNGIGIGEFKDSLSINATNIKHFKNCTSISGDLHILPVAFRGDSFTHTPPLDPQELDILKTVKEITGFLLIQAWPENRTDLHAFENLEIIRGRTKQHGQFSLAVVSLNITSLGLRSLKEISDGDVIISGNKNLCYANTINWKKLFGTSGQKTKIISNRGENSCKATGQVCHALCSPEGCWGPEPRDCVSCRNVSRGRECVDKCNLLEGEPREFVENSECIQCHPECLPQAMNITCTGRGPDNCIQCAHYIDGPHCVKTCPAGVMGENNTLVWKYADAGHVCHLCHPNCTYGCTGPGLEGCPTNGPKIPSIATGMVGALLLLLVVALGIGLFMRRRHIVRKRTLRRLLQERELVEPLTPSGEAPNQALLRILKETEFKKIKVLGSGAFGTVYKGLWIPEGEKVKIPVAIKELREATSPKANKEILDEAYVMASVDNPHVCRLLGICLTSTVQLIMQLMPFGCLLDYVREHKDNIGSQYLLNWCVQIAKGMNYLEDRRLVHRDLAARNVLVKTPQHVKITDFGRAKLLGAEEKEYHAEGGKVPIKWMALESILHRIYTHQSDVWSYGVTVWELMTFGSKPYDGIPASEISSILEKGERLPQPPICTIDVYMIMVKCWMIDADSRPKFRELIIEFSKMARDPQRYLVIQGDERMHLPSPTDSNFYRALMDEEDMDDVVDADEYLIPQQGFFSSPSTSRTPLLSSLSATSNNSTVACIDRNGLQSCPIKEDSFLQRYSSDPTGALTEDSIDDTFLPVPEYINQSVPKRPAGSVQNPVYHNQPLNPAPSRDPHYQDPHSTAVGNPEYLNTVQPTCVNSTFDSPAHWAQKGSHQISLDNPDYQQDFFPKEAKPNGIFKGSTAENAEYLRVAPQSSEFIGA
# Sequence of EGFR (ErbB1) (P00533 25-1210): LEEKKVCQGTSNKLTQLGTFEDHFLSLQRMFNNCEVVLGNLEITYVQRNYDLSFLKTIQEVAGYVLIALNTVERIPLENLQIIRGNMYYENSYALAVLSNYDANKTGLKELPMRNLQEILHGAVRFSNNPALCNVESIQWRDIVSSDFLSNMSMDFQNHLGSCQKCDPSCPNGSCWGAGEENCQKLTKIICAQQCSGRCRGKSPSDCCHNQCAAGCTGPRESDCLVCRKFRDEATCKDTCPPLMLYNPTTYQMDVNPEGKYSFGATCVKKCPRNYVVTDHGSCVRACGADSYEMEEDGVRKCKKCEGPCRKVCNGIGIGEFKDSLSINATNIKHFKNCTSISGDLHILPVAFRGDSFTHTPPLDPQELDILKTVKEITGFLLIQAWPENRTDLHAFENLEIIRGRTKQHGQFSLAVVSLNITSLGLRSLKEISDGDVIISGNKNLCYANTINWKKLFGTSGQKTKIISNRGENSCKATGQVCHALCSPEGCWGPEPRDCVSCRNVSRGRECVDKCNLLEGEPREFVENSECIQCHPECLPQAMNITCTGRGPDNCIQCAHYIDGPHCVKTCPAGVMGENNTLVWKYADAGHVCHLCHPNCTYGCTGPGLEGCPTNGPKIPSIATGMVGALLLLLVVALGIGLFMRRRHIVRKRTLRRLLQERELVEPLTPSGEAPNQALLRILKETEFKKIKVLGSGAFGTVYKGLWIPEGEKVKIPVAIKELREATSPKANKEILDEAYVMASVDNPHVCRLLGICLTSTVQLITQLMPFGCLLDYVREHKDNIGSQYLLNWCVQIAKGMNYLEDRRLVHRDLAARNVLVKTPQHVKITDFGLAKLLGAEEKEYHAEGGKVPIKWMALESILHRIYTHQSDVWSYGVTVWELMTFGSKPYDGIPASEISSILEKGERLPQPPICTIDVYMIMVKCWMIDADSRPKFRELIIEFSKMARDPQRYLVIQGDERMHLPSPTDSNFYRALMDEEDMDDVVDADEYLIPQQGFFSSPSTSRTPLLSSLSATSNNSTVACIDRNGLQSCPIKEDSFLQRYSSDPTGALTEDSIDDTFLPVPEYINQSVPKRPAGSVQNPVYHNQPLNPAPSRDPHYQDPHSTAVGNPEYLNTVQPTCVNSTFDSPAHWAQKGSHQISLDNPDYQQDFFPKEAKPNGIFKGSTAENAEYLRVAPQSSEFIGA
SMILES,IC50 (H1975 cells) [nM],inhibition at 0.041 µM (EGFR (ErbB1)) [%],inhibition at 0.0137 µM (EGFR (ErbB1) T790M L858R) [%],IC50 (EGFR (ErbB1) T790M L858R; read-out: IC50 against EGFR L858R/T790M) [nM]
"C=CC(=O)Nc1cccc(-c2cccc3cnc(Nc4ccc(N5CCN(CC(N)=O)CC5)c(F)c4)nc23)c1 [Example C164, N-(3-(2-((4-(4-(2-amino-2-oxoethyl)piperazin-1-yl)-3-fluorophenyl)amino)quinazolin-8-yl)phenyl)acrylamide]",100 to 500,< 50,< 50,–
"C=CC(=O)Nc1ccc(Cl)c(-c2cccc3cnc(Nc4ccc(N5CCN(C)CC5)cc4)nc23)c1 [Example C073, N-(4-chloro-3-(2-((4-(4-methylpiperazin-1-yl)phenyl)amino)quinazolin-8-yl)phenyl)acrylamide]",100 to 500,< 50,> 50,–
"C=CC(=O)Nc1cccc(-c2cccc3cnc(Nc4ccc(O[C@@H]5CCN(C(C)=O)C5)cc4)nc23)c1 [Example C133, (R)-N-(3-(2-((4-((1-acetylpyrrolidin-3-yl)oxy)phenyl)amino)quinazolin-8-yl)phenyl)acrylamide]",100 to 500,< 50,< 50,–
"C=CC(=O)Nc1cccc(-c2cccc3cnc(Nc4ccc(N5CCCOCC5)cc4)nc23)c1 [Example C102, N-(3-(2-((4-(1,4-oxazepan-4-yl)phenyl)amino)quinazolin-8-yl)phenyl)acrylamide]",< 100,< 50,< 50,–
"C=CC(=O)Nc1cccc(-c2cccc3cnc(Nc4cnc(N5CCN(C)CC5)c(Cl)c4)nc23)c1 [Example C081, N-(3-(2-((5-chloro-6-(4-methylpiperazin-1-yl)pyridin-3-yl)amino)quinazolin-8-yl)phenyl)acrylamide]",100 to 500,< 50,> 50,< 100
"C=CC(=O)Nc1cccc(-c2cccc3cnc(Nc4ccc(N5CCN(C)C(C(=O)OC)C5)cc4)nc23)c1 (stereo not shown) [Example C089, methyl 4-(4-((8-(3-acrylamidophenyl)quinazolin-2-yl)amino)phenyl)-1-methylpiperazine-2-carboxylate]",100 to 500,< 50,< 50,–
"C=CC(=O)Nc1cccc(-c2cccc3cnc(Nc4ccc(N5CCN(CC(C)(C)O)CC5)c(F)c4)nc23)c1 [Example C143, N-(3-(2-((3-fluoro-4-(4-(2-hydroxy-2-methylpropyl)piperazin-1-yl)phenyl)amino)quinazolin-8-yl)phenyl)acrylamide]",< 100,< 50,> 50,–

# Results, then the compound that gave them:
IC50 (H1975 cells) [nM],inhibition at 0.041 µM (EGFR (ErbB1)) [%],inhibition at 0.0137 µM (EGFR (ErbB1) T790M L858R) [%],IC50 (EGFR (ErbB1) T790M L858R; read-out: IC50 against EGFR L858R/T790M) [nM],SMILES
< 100,< 50,< 50,–,"C=CC(=O)Nc1cccc(-c2cccc3cnc(Nc4ccc(NCC(F)F)cc4)nc23)c1 [Example C135, N-(3-(2-((4-((2,2-difluoroethyl)amino)phenyl)amino)quinazolin-8-yl)phenyl)acrylamide]"
< 100,< 50,< 50,–,"C=CC(=O)Nc1cccc(-c2cccc3cnc(Nc4ccc(N5CCC(O)C5)cc4)nc23)c1 (stereo not shown) [Example C098, N-(3-(2-((4-(3-hydroxypyrrolidin-1-yl)phenyl)amino)quinazolin-8-yl)phenyl)acrylamide]"
< 100,< 50,< 50,–,"C=CC(=O)Nc1cccc(-c2cccc3cnc(Nc4ccc(NCCF)cc4)nc23)c1 [Example C134, N-(3-(2-((4-((2-fluoroethyl)amino)phenyl)amino)quinazolin-8-yl)phenyl)acrylamide]"
> 500,< 50,< 50,–,"C=CC(=O)Nc1cccc(-c2cccc3cnc(Nc4ccc(N(C)CCF)cc4)nc23)c1 [Example C064, N-(3-(2-((4-((2-fluoroethyl)(methyl)amino)phenyl)amino)quinazolin-8-yl)phenyl)acrylamide]"
